Experimental data from patent US11203608B2, “Platinum-containing compounds, and related compositions and uses thereof” (Massachusetts Institute of Technology, priority 2019, dated 2021).

Columns and labels:
[1] = tested on: A549 human lung carcinoma; experiment: Cell growth, resazurin assay, A549; type: cell-based; conditions: 96-h exposure (table title)
Description: (§3) Cells were cultured in 10 mL of Advanced DMEM/F12 (ADMEM/F12), supplemented with 5% FBS, 2 mM GlutaMAX, and 1% Penicillin-Streptomycin in 10 cm tissue culture plates. Cells were then plated into 96-well plates with about 2.5×10^3 cells per well. Cells were plated with 200 μL per well of ADMEM/F12 supplemented with 5% FBS, 2 mM GlutaMAX, and 1% Penicillin-Streptomycin. Cells were treated with dose responses of doxorubicin, oxaliplatin, or doxaliplatin upon plating. The cells were then cultured for 72 hours following drug treatment, and cell growth was measured by resazurin assay.

[2] = tested on: OVCAR8-OXR oxaliplatin-resistant human ovarian cancer cell line; experiment: Cell growth, resazurin assay, OVCAR8-OXR; conditions: 72-h exposure; for Fold Resistance (IC50, OVCAR8OXR vs OVCAR8): based on IC50 values
Description: Cells were cultured in 10 mL of Advanced DMEM/F12 (ADMEM/F12), supplemented with 5% FBS, 2 mM GlutaMAX, and 1% Penicillin-Streptomycin in 10 cm tissue culture plates. Cells were then plated into 96-well plates with about 2.5×10^3 cells per well. Cells were plated with 200 μL per well of ADMEM/F12 supplemented with 5% FBS, 2 mM GlutaMAX, and 1% Penicillin-Streptomycin. […] The cells were then cultured for 72 hours following drug treatment, and cell growth was measured by resazurin assay.

[3] = tested on: doxorubicin-resistant A2780ADR human ovarian cancer cell line; experiment: Cell growth, resazurin assay, A2780ADR; type: cell-based; conditions: 72-h exposure
Description: as §3

[4] = tested on: HL60 human leukemia cell line; experiment: Cell growth, resazurin assay, HL60; type: cell-based; conditions: 96-h exposure (table title)
Description: as §3

[5] = tested on: APC−/−; P53−/−; TdTomato+ (AP-tdt) organoids; experiment: Viability of AP-tdt murine colorectal cancer organoids, resazurin assay; type: cell-based; conditions: 72-h exposure (table title); read-out: IC50 against AP-tdt organoids
Description: (§1) Colonic crypts were isolated and colon organoids were generated from the following mouse genotypes on a C57Bl/6 background: 1. Rosa-LSL-TdTomato (hereafter LSL-tdt), 2. P53^f1/f1; LSL-tdt, and 3. LSL-KRAS^G12D/WT; P53^fl/fl; LSL-tdt mice. Subsequently, the pSECC-APC plasmid (carrying Cre, Cas9, and sgAPC) was transfected into each of the above three genotypes of colon organoids. This transfection strategy generated, in a single step, the following colorectal cancer organoids, including 1. APC^−/−; TdTomato^+ (A-tdt), 2. APC^−/−; P53^−/−; TdTomato^+ (AP-tdt), and 3. APC^−/−; KRAS^G12D/WT; P53^−/−; TdTomato^+ (AKP-tdt). Organoids of the desired genotype were selected for by Wnt/Rspo withdrawal for APC^−/−, Nutlin-3 addition for P53^−/−, and EGF withdrawal for KRAS^G12D.
(§2) Twenty four hours after seeding the organoids, a media change was performed and dose responses of oxaliplatin, doxorubicin and doxaliplatin were added. […] Organoids were cultured in Advanced DMEM/F12 supplemented with 2 mM GlutaMAX, 1% Penicillin-Streptomycin, 2% B27, and Y-27632 (10 μM).

[6] = tested on: HT-29 human colorectal adenocarcinoma; experiment: Cell growth, resazurin assay, HT-29; type: cell-based; conditions: 96-h exposure (table title); read-out: IC50 HT-29 (colon)
Description: as §3

[7] = tested on: cisplatin-resistant A2780CIS human ovarian cancer cell line; experiment: Cell growth, resazurin assay, A2780CIS; type: cell-based; conditions: 72-h exposure
Description: as §3

[8] = tested on: A-tdt, AP-tdt, and AKP-tdt murine colorectal cancer organoids; experiment: Cellular toxicity across the A-tdt, AP-tdt and AKP-tdt organoid series; type: cell-based; conditions: series of A-tdt
Description: as §1
Twenty four hours after seeding the organoids, a media change was performed and dose responses of oxaliplatin, doxorubicin and doxaliplatin were added. Forty eight hours after treatment, cell growth was evaluated by resazurin assay. Organoids were cultured in Advanced DMEM/F12 supplemented with 2 mM GlutaMAX, 1% Penicillin-Streptomycin, 2% B27, and Y-27632 (10 μM).

[9] = tested on: A2780 human ovarian cancer cell line
Description: ICP-MS was performed on an Agilent 7900 ICP-MS in helium mode.
The cells in a six-well plate were treated with oxaliplatin, doxaliplatin, or a mixture of doxorubicin and oxaliplatin at indicated concentration in 2 mL of Advanced DMEM/F12 (ADMEM/F12), supplemented with 5% FBS, 2 mM GlutaMAX, and 1% Penicillin-Streptomycin. After three hours, the media were removed. The cells were washed with xl PBS buffer containing EDTA (100 μM, 4 mL×2). To each well, MilliQ water (1.0 mL) was added. After 15 min, the cells were suspended. A portion of the resulting cell lysate (900 μL) was transferred to an Eppendorf tube. The samples were frozen in liquid nitrogen and thawed at room temperature. This procedure was repeated for three times. The insoluble lysate was pelleted (10000 rpm for 10 min). […] Pierce 660 nm Protein solution (200 μL) was added to each well. An aliquot of the lysate (14.2 μL) was added to each well. The plate was shaken and read on a plate reader. The remaining samples were frozen at liquid nitrogen temperature and lyophilized. The dried material was digested with Aristar® ultrapure concentrated nitric acid (70%) at 70° C. for one hour. An aliquot of this solution (142 μL) was mixed with molecular biology grade water (2000 μL) and a terbium internal standard (40 μL, 100 ppb). The platinum content was then determined using an Agilent 7900 ICP-MS in helium mode. The concentration of platinum in the cells was normalized to measured protein concentration described above.

[10] = tested on: APC−/−; KRASG12D/WT; P53−/− (AKP) organoids; experiment: Viability of AKP murine colorectal cancer organoids; type: cell-based
Description: To generate 4. APC^−/−; KRAS^G12D/WT; P53^−/−; (AKP) and 5. APC^−/−; KRAS^G12D/WT; P53^−/−; MSH2^−/− (AKP-MSH2) colon cancer organoids, colonic crypts were isolated and colon organoids were generated from the following mouse genotypes on a C57Bl/6 background: 4. LSL-KRAS^G12D/WT; P53^fl/fl mice and 5. LSL-KRAS^G12D; P53^fl/fl; MSH2^fl/fl mice. Subsequently, the pSECC-APC plasmid (carrying Cre, Cas9, and sgAPC) was transfected into each of the above two genotypes of colon organoids. Following pSECC-APC transfection, Wnt/Rspo withdrawal was performed and surviving (APC^−/−) single organoids were cloned and PCR genotyped for Cre mediated deletion of p53 and/or MSH2, and for Cre mediated activation of oncogenic KRAS^G12D.
as §2

[11] = tested on: APC−/−; TdTomato+ (A-tdt) organoids; experiment: Viability of A-tdt murine colorectal cancer organoids, resazurin assay; type: cell-based; conditions: 72-h exposure (table title); read-out: IC50 against A-tdt organoids
Description: as §1, §2

[12] = tested on: APC−/−; KRASG12D/WT; P53−/−; TdTomato+ (AKP-tdt) organoids; experiment: Viability of AKP-tdt murine colorectal cancer organoids, resazurin assay; type: cell-based; conditions: 72-h exposure (table title); read-out: IC50 against AKP-tdt organoids
Description: as §1, §2

[13] = tested on: PC3 human prostate adenocarcinoma; experiment: Cell growth, resazurin assay, PC3; type: cell-based; conditions: 96-h exposure (table title)
Description: as §3

IC50 [1]: 100 nM | Fold Resistance (IC50, OVCAR8OXR vs OVCAR8) [2]: 1.0 fold | Fold Resistance (IC50, OVCAR8OXR vs OVCAR8) ([2]; listed as doxaliplatin): no change in the IC50 value | IC50 ([2]; read-out: IC50 OVCAR8OXR): 140 ± 10 nM | IC50 [3]: 72 nM | IC90 [3]: 490 nM | IC50 [4]: 160 nM | IC50 [5]: 410 nM | IC50 [6]: 330 nM | IC50 [7]: 280 nM | IC90 [7]: 380 nM | IC50 ([10]; 72-h exposure, read-out: IC50 against AKP organoids): 110 nM | Potency relative to oxaliplatin (by IC50) ([10]; AKP organoids): 13 fold | IC50 [11]: 460 nM | IC50 [12]: 430 nM | IC50 [13]: 92 nM
SMILES: COc1cccc2c1C(=O)c1c(O)c3c(c(O)c1C2=O)CC(O)(C(=O)CO)CC3OC1CC(N)C(N)C(C)O1.O=C1[O][Pt][O]C1=O (stereo not shown) [DoxPt, Doxaliplatin]
Fold Resistance (IC80, OVCAR8OXR vs OVCAR8) ([2]; based on IC80 values): 0.6 fold | IC80 ([2]; read-out: IC80 OVCAR8OXR): 230 ± 10 nM | IC95 [3]: 670 nM | IC95 [7]: 410 nM | Cellular toxicity relative to oxaliplatin [8]: three to ten-fold higher cellular toxicity than oxaliplatin | Platinum concentration in treated cells relative to oxaliplatin-treated cells [9]: approximately ten times higher than in oxaliplatin-treated cells
